Results on 13 compounds are retold here after ChEMBL document CHEMBL1201862, “PubChem BioAssay data set” (2004).

SMILES strings stand for the structures.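 How tested: cells in 96-well plates exposed to compound for 48 hours at five concentrations. The concentration for 50% growth inhibition is given as GI50.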 Active and inactive are the calls of the source. Cut-off read from the data, not from the text of the source: active = GI50 up to about 1.1 µM and inactive = higher. Some results are limits rather than exact numbers.

Some test systems named below: UO-31; UACC-62; HL-60; ACHN; NCI-H460; IGROV-1; SF-268; 786-0; UACC-257; EKVX; OVCAR-3; M14; SK-OV-3; NCI-H522; NCI-H226; HCT-116; MOLT-4.
Assay in all cases: inhibition of tumour cell growth, NCI panel, 48 h

Regarding `CC(C)c1cccc2sc(NC(=O)C(=O)CC(=O)c3ccc(F)cc3)nc12`, the GI50 in the assay with UO-31, with UACC-62, with HL-60, in the assay on ACHN, in the assay with NCI-H460 and in the assay with IGROV-1 was > 100 µM (inactive) throughout. Further, the GI50 with SF-268, in the assay with 786-0, in the assay on UACC-257, with EKVX, with OVCAR-3 and in the assay with M14 was > 100 µM (inactive) each time. For the same compound, the GI50 with SK-OV-3, in the assay on NCI-H522, in the assay with NCI-H226 and in the assay with HCT-116 was > 100 µM (inactive) each time.

As to `Cc1ccc([N+](=O)[O-])cc1NC(=O)C(=O)Cc1occc(=O)c1O`, the GI50 with UO-31, with UACC-62, in the assay on HL-60, in the assay on ACHN, in the assay on NCI-H460 and in the assay on IGROV-1 was > 100 µM (inactive) in each case. The GI50 with SF-268, with 786-0, in the assay on EKVX, in the assay with OVCAR-3, in the assay on SK-OV-3 and in the assay with NCI-H522 was > 100 µM (inactive) each time. Further, the GI50 in the assay with NCI-H226 was > 100 µM (inactive).

Consider `O=C(O)Cc1cc(=O)[nH]c2c1/C(=N/O)CCC2`, for which the GI50 in the assay with UO-31, in the assay on HL-60, in the assay on ACHN, in the assay on NCI-H460, in the assay on IGROV-1 and in the assay on SF-268 was > 100 µM (inactive) in each case. The GI50 with MOLT-4, with 786-0, in the assay with UACC-257, in the assay with EKVX, in the assay with OVCAR-3 and in the assay with M14 was > 100 µM (inactive) throughout. Moreover, the GI50 in the assay on SK-OV-3, in the assay with NCI-H522 and with NCI-H226 was > 100 µM (inactive) in each case.

Regarding `CC(=O)c1cc([N+](=O)[O-])ccc1OCC(=O)O`, the GI50 with UO-31, with UACC-62, in the assay on HL-60, in the assay on ACHN, in the assay on NCI-H460 and in the assay with IGROV-1 was > 100 µM (inactive) throughout. In addition, the GI50 in the assay with SF-268, in the assay with MOLT-4, in the assay on 786-0, with UACC-257, with EKVX and in the assay with OVCAR-3 was > 100 µM (inactive) each time. Further, the GI50 with M14, in the assay on SK-OV-3, in the assay with NCI-H522, with NCI-H226 and in the assay with HCT-116 was > 100 µM (inactive) in each case.

Turning to `Cn1c(/C=C/CO)c(CO)c2c1C(=O)C=C(N1CC1)C2=O` [APAZIQUONE], the GI50 is 0.0142 µM (active) in the assay on UO-31; < 0.01 µM (active) with UACC-62; 0.0259 µM (active) in the assay with HL-60; < 0.01 µM (active) in the assay with NCI-H460; 0.0244 µM (active) in the assay on IGROV-1; 0.0137 µM (active) with SF-268. The GI50 was 0.299 µM (active) in the assay with MOLT-4; < 0.01 µM (active) in the assay with UACC-257; 0.0463 µM (active) in the assay with EKVX; 0.0206 µM (active) in the assay with OVCAR-3; < 0.0134 µM (active) with SK-OV-3; 0.0102 µM (active) with NCI-H522. Further, the GI50 was 0.0185 µM (active) in the assay with NCI-H226 and 0.0109 µM (active) in the assay on HCT-116.

Regarding `C=C(C=O)[C@@H]1C2OC(=O)C(=C)[C@@H]2CC(O)[C@@]1(C)CC` (some centres undefined), the GI50 in the assay on UO-31 was 21.3 µM (inactive); in the assay with UACC-62, 4.12 µM (inactive); with HL-60 it was 2.25 µM (inactive); with ACHN it was 13.7 µM (inactive); with NCI-H460, 21.2 µM (inactive); with IGROV-1, 10.7 µM (inactive). Further, the GI50 in the assay on SF-268 is 23.8 µM (inactive); with MOLT-4, 2.48 µM (inactive); in the assay with 786-0, 3.32 µM (inactive); in the assay with UACC-257 it was 11.9 µM (inactive); in the assay on EKVX it was 18.2 µM (inactive); in the assay on OVCAR-3 it was 6.71 µM (inactive). Moreover, the GI50 in the assay with M14 is 4.83 µM (inactive); with SK-OV-3, > 60.5 µM (inactive); with NCI-H522 it was 1.87 µM (inactive); with NCI-H226, 32 µM (inactive); in the assay with HCT-116, 3.78 µM (inactive).

Turning to `O=C1OC(c2ccccc2)(c2ccccc2)c2ccc3ccc(F)cc3c21`, the GI50 in the assay on UO-31 is 79.4 µM (inactive); in the assay on UACC-62, 26.9 µM (inactive); in the assay on HL-60, 9.4 µM (inactive); in the assay on ACHN it was 49.8 µM (inactive); in the assay on NCI-H460, > 100 µM (inactive); in the assay on IGROV-1, > 100 µM (inactive). The GI50 is > 100 µM (inactive) with SF-268; > 100 µM (inactive) in the assay on MOLT-4; > 100 µM (inactive) with 786-0; 37.1 µM (inactive) in the assay on UACC-257; 53.3 µM (inactive) with EKVX; 68.7 µM (inactive) with OVCAR-3. The GI50 in the assay on M14 was > 100 µM (inactive); in the assay on SK-OV-3 it was > 100 µM (inactive); in the assay on NCI-H522 it was 51.1 µM (inactive); with NCI-H226 it was > 100 µM (inactive); in the assay with HCT-116 it was 27 µM (inactive).

With `O=C(O)/C(Cl)=C(\Cl)C(=O)c1ccccc1`, the GI50 in the assay on UO-31, in the assay with UACC-62, in the assay on HL-60, in the assay with ACHN, in the assay on NCI-H460 and in the assay on IGROV-1 was > 100 µM (inactive) each time. In addition, the GI50 in the assay with SF-268, with MOLT-4, with 786-0, with UACC-257, with EKVX and with OVCAR-3 was > 100 µM (inactive) in each case. The GI50 with M14, in the assay with SK-OV-3, in the assay on NCI-H522, in the assay with NCI-H226 and in the assay with HCT-116 was > 100 µM (inactive) throughout.

As for `C=C1C2Oc3ccccc3C1N(c1ccccc1)O2` (centres undefined), the GI50 in the assay on UO-31 is 47.9 µM (inactive); in the assay on HL-60, 30.3 µM (inactive); in the assay with ACHN, 37.2 µM (inactive); in the assay on NCI-H460, 20.8 µM (inactive); with IGROV-1 it was 34.4 µM (inactive); in the assay on SF-268, 28.8 µM (inactive). Moreover, the GI50 in the assay on MOLT-4 is 20 µM (inactive); in the assay with 786-0, 41.5 µM (inactive); in the assay on UACC-257, 40.6 µM (inactive); in the assay with EKVX, 42.9 µM (inactive); in the assay with OVCAR-3 it was 32.3 µM (inactive); with M14, 22.1 µM (inactive). The GI50 was 64.3 µM (inactive) with SK-OV-3, 27.2 µM (inactive) with NCI-H522, 37.9 µM (inactive) with NCI-H226 and 20.3 µM (inactive) in the assay on HCT-116.

Consider `NCCCNCCSP(=O)(O)O` [AMIFOSTINE], for which the GI50 with UO-31 is 535 µM (inactive); in the assay with UACC-62, > 710 µM (inactive); in the assay on HL-60, 176 µM (inactive); in the assay on NCI-H460, > 750 µM (inactive); in the assay with IGROV-1, > 750 µM (inactive); with SF-268, > 750 µM (inactive). Besides, the GI50 with MOLT-4 was 685 µM (inactive); with UACC-257, > 750 µM (inactive); with EKVX, > 750 µM (inactive); in the assay on OVCAR-3 it was > 750 µM (inactive); in the assay with SK-OV-3, > 750 µM (inactive); with NCI-H522 it was 389 µM (inactive). For the same compound, the GI50 in the assay on NCI-H226 is > 703 µM (inactive); in the assay with HCT-116, 743 µM (inactive).

Regarding `C1=Nc2ccccc2Cn2nncc21`, the GI50 in the assay on UO-31 is 89.1 µM (inactive); in the assay on UACC-62, 23 µM (inactive); in the assay with HL-60, 25.4 µM (inactive); in the assay with ACHN, > 100 µM (inactive); in the assay on NCI-H460, > 100 µM (inactive); in the assay on IGROV-1, 67.5 µM (inactive). The GI50 was > 100 µM (inactive) in the assay on SF-268; > 100 µM (inactive) in the assay with MOLT-4; 98.2 µM (inactive) in the assay on EKVX; > 100 µM (inactive) with OVCAR-3; 67.3 µM (inactive) in the assay on M14; > 100 µM (inactive) in the assay on SK-OV-3. For the same compound, the GI50 in the assay with NCI-H522 is 32.7 µM (inactive); with NCI-H226, > 100 µM (inactive); in the assay on HCT-116, 35.7 µM (inactive).

Turning to `CC(=O)OCc1cc(=O)n(C)c2c3c4c(cc12)c(C)cc(=O)n4CO3`, the GI50 in the assay on UO-31 was 1.64 µM (inactive); with UACC-62, 1.34 µM (inactive); in the assay with HL-60 it was 1.4 µM (inactive); in the assay on NCI-H460 it was 0.52 µM (active); with IGROV-1, 1.21 µM (inactive); in the assay on SF-268, 0.782 µM (active). Besides, the GI50 was 0.478 µM (active) in the assay on MOLT-4; 2.05 µM (inactive) in the assay with UACC-257; 2.44 µM (inactive) in the assay with EKVX; 1.45 µM (inactive) with OVCAR-3; 3.56 µM (inactive) in the assay with SK-OV-3; 0.711 µM (active) in the assay with NCI-H522. Moreover, the values for the GI50 with NCI-H226 and in the assay with HCT-116 were 1.58 µM (inactive) and 0.367 µM (active), respectively.

For `CCCCC1(C2c3ccccc3Oc3ccccc32)C(=O)N(c2ccccc2)N(c2ccccc2)C1=O`, the GI50 is > 83.2 µM (inactive) with UO-31; > 89.3 µM (inactive) in the assay with UACC-62; 21.9 µM (inactive) in the assay on HL-60; 47.8 µM (inactive) with NCI-H460; > 72.3 µM (inactive) with IGROV-1; > 79.1 µM (inactive) in the assay on SF-268. The GI50 with MOLT-4 is > 10 µM (inactive); in the assay on UACC-257, 29.4 µM (inactive); in the assay with EKVX, > 100 µM (inactive); in the assay with OVCAR-3, 42.3 µM (inactive); in the assay with SK-OV-3, > 100 µM (inactive); in the assay on NCI-H522, 3.79 µM (inactive). Also, the figures for the GI50 in the assay on NCI-H226 and with HCT-116 were > 80.9 µM (inactive) and 41.3 µM (inactive), respectively.
